Key:
IL-6 = IL-6 ELISA in hippocampus, Aβ25-35 oligomer neuroprotection design; assay type: in vivo; settings: 0.3 mg/Kg i.p., compared to intoxicated but untreated mice
Description: (§1) The neuroprotective effect of the compounds, i.e. the ability thereof to protect cells from Aβ25-35 oligomer neurotoxicity and neurodegeneration, is also tested (FIG. 10). The test compounds are thus administered on the same day as the injection of the Aβ25-35 oligomers and are continued to be administered on a daily basis up to day 7 after the injection of the oligomers, at which time the mice are subjected to the YMT, PAT, MWT or ORT. The brain's anatomy is analysed and neuronal cells are counted by immunohistochemistry on mice sacrificed at D13. The biochemical analyses for the quantification of markers of oxidative stress and apoptosis were carried out at D16 on a group of mice that had been subjected to the WMT (FIG. 10).
(§2) Their brains were removed, and the hippocampi were isolated, weighed and frozen at −80° C. awaiting biochemical analysis.
Interleukin 6 (IL-6), a cytokine inflammatory marker, and the levels of the apoptosis markers Bcl2 and Bax proteins were measured in mouse hippocampi by the ELISA tests listed in Table 1 hereinbelow. Bcl2 is often referred to as an anti-apoptotic marker and Bax as a pro-apoptotic marker. […] After centrifugation (10,000 g, 5 min, 4° C.), the supernatants containing the markers to be measured were aliquoted and stored at −80° C. until the ELISA test was carried out according to the supplier's instructions. […]

Bax and Bcl-2 = Bax and Bcl-2 ELISA in hippocampus, Aβ25-35 oligomer neuroprotection design; assay type: in vivo, mice; settings: 0.3 mg/Kg; for Bax protein levels in the hippocampus: compared to the intoxicated, untreated group (not shown)
Description: as §1, §2
Interleukin 6 (IL-6), a cytokine inflammatory marker, and the levels of the apoptosis markers Bcl2 and Bax proteins were measured in mouse hippocampi by the ELISA tests listed in Table 1 hereinbelow. Bcl2 is often referred to as an anti-apoptotic marker and Bax as a pro-apoptotic marker. Both hippocampi of 6-8 animals per condition were used. The tissues were homogenised after thawing in cell lysis buffer (1 mL, 3 IS007, Cloud-Clone) and sonicated on ice (2×10 s). After centrifugation (10,000 g, 5 min, 4° C.), the supernatants containing the markers to be measured were aliquoted and stored at −80° C. until the ELISA test was carried out according to the supplier's instructions. The results are expressed in ng of marker per mg of total protein and as a percentage of the control (mice not intoxicated with Aβ25-35 and not treated with the test compounds).

lipid peroxidation = experiment: Lipid peroxidation in hippocampus, Aβ25-35 oligomer neuroprotection design; assay type: in vivo, mice; settings: 0.3 mg/Kg
Description: The neuroprotective effect of the compounds, i.e. the ability thereof to protect cells from Aβ25-35 oligomer neurotoxicity and neurodegeneration, is also tested (FIG. 10). The test compounds are thus administered on the same day as the injection of the Aβ25-35 oligomers and are continued to be administered on a daily basis up to day 7 after the injection of the oligomers, at which time the mice are subjected to the YMT, PAT, MWT or ORT. The brain's anatomy is analysed and neuronal cells are counted by immunohistochemistry on mice sacrificed at D13. The biochemical analyses for the quantification of markers of oxidative stress and apoptosis were carried out at D16 on a group of mice that had been subjected to the WMT (FIG. 10). […]
The amount of hydroperoxide present in the samples was measured by quantifying the Fe^3+-xylenol orange complex: in an acidic medium, hydroperoxides oxidise the Fe^2+ to Fe^3+. The latter forms a coloured complex with xylenol orange, the formation whereof was quantified by measuring its absorbance at 580 nm.
After thawing, the hippocampi were homogenised in cold methanol (1/10 w/v), centrifuged at 1000 g for 5 min and the supernatant was collected. […] The absorbance at 580 nm (A5801) was measured and 10 μl of cumene hydroperoxide (CHP, 1 mM) was added and the entirety was incubated for 30 min at ambient temperature. […]

[1] = tested on: Aβ25-35 oligomer-intoxicated mice; experiment: Passive avoidance test, neuroprotection design; assay type: in vivo; settings: doses 0.03; 0.1; 0.3; 1.0 and 3 mg/Kg i.p., neuroprotection design (not shown)
Description: as §1
This test measures non-spatial (contextual) long-term memory. The apparatus used for this test was a box with two compartments (15×20×15 cm high), one illuminated with white PVC walls and the other in the dark with black PVC walls and a grid floor. A guillotine door separated the compartments. A 60 W lamp was positioned 40 cm above the box and illuminated the white compartment. […] The time taken by the mouse to re-enter the darkened compartment (STL-Tg) and the number of vocalizations were recorded. […] After 5 s the door was raised, the step-through latency (STL-R), i.e. the time it took the mouse to enter the darkened compartment, was measured. […]

non-intoxicated mice = experiment: Passive avoidance test, amnestic effect in non-intoxicated mice; assay type: in vivo; settings: 10 mg/Kg i.p.
Text: (§3) This test measures non-spatial (contextual) long-term memory. The apparatus used for this test was a box with two compartments (15×20×15 cm high), one illuminated with white PVC walls and the other in the dark with black PVC walls and a grid floor. A guillotine door separated the compartments. A 60 W lamp was positioned 40 cm above the box and illuminated the white compartment. Electric shocks (0.3 mA for 3 s) could be delivered to the grid floor using a generator (Lafayette Instruments, Lafayette, USA). The test comprised a training session and a test session. The guillotine door was closed during the training session. Each mouse was placed in the white compartment. After 5 seconds, the door was raised. When the mouse entered the darkened compartment and placed all four feet in contact with the grid floor, the door was closed and the electric shocks were delivered for 3 seconds. The time taken by the mouse to re-enter the darkened compartment (STL-Tg) and the number of vocalizations were recorded. The test session was conducted 24 hours after the training session. Each mouse was placed back into the illuminated white compartment. After 5 s the door was raised, the step-through latency (STL-R), i.e. the time it took the mouse to enter the darkened compartment, was measured. The maximum duration was 300 s. Mice with a STL-Tg>30 s or a STL-Tg and a STL-R<10 s were not considered for the test. […]

[2] = tested on: Aβ25-35 oligomer-intoxicated mice; experiment: Passive avoidance test, symptomatic treatment; assay type: in vivo; settings: symptomatic design; for improvement in cognitive impairment in the passive avoidance test, effective doses: doses 0.1, 0.3, 1.0, 3 and 10 mg/Kg i.p.; for aggravating effect on amnestic symptoms in the passive avoidance test: intoxicated mice, memantine at 10 mg/Kg
Description: The test compounds were tested for their ability to decrease the cognitive symptoms of Aβ25-35 oligomer-induced neurodegeneration, i.e. their ability to provide symptomatic anti-amnestic treatment (FIGS. 1A and 1B). In brief, to test the symptomatic effect of the test compounds, they were administered 8 days after the icy injection of the Aβ25-35 oligomers, 30 minutes before the YMT and PAT memory tests were conducted or 30 minutes before the test, but after the training session, in the case of the MWT or ORT (FIG. 1A). The Hamlet Test® (FIG. 1B) involves a 2-week training session (4 hr/day) followed by a test (max. 10 min) under water deprivation conditions and under normal conditions; the Aβ25-35 peptide is injected after this first test. After one week, the compounds are administered and a second test under water deprivation conditions and under normal conditions is performed 30 min after injection. This test measures spatial-temporal disorientation, a major warning sign in Alzheimer's disease (Crouzier et al., 2018).
as §3, with “test. The attrition rate was routinely 5% (Meunier et al., 2006, 2013; Villard et al., 2009, 2011). A mouse with impaired memory abilities will have a lower STL-R than a mouse with normal abilities.” for “test.”

Row | SMILES | IL-6 level in the hippocampus (IL-6) | Bax/Bcl-2 ratio in the hippocampus (Bax and Bcl-2) | Bax protein levels in the hippocampus (Bax and Bcl-2) | level of lipid peroxidation in the hippocampus (lipid peroxidation) | protective effect on latency in the passive avoidance test, effective doses [1] | Latency (non-intoxicated mice) | improvement in cognitive impairment in the passive avoidance test, effective doses [2] | aggravating effect on amnestic symptoms in the passive avoidance test [2]
1 | NC12CC3CC(C1)CC(CCF)(C3)C2 [FENM, 3-(2-fluoroethyl)adamantan-1-amine] | significantly lower than that of untreated, intoxicated mice | significantly decreased the Bax/BcI-2 ratio | significantly reduced | level equivalent to that of the control group | procured neuroprotection as regards memory for all doses tested from 0.1 mg/Kg i.p. up to and including 3 mg/Kg | 183.0 ± 38.4 s | effective at 0.1; 0.3 and 1 mg/Kg | does not exert an aggravating effect on amnestic symptoms
2 | CC12CC3CC(C)(C1)CC(N)(C3)C2 [memantine, 3,5-Dimethyl-1-adamantanamine, reference compound] | did not result in a significant decrease in IL-6 levels |  | significantly reduced | did not significantly decrease the level of lipid peroxidation | only observed at two of the doses tested (0.1 and 1 mg/Kg i.p.) | 56.0 ± 31.1 s | significant improvement in cognitive impairment by memantine was observed at the 0.3 mg/Kg memantine dose only | worsens the cognitive symptoms of intoxicated mice when injected at 10 mg/Kg
